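Five compound concentrations were applied to cells in 96-well plates for 48 hours; endpoints were derived by simple linear interpolation of the resulting dose-response curve. TGI is the concentration that stops growth completely.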
What was measured:
Test in all cases: inhibition of tumour cell growth, NCI panel, 48 h
RPMI-8226 leukemia = system: RPMI-8226 leukemia
HOP-92 NSCLC = system: HOP-92 NSCLC
LXFL 529 NSCLC = system: LXFL 529 NSCLC
OVCAR-3 ovarian = system: OVCAR-3 ovarian
TK-10 renal = system: TK-10 renal
SF-295 CNS = system: SF-295 CNS
SF-268 CNS = system: SF-268 CNS
OVCAR-4 ovarian = system: OVCAR-4 ovarian
RXF 393 renal = system: RXF 393 renal
SNB-78 CNS = system: SNB-78 CNS
SK-MEL-5 melanoma = system: SK-MEL-5 melanoma
M14 melanoma = system: M14 melanoma
OVCAR-8 ovarian = system: OVCAR-8 ovarian
SN12C renal = system: SN12C renal
CAKI-1 renal = system: CAKI-1 renal
UACC-257 melanoma = system: UACC-257 melanoma
DLD-1 colon = system: DLD-1 colon
KM12 colon = system: KM12 colon
OVCAR-5 ovarian = system: OVCAR-5 ovarian
U251 CNS = system: U251 CNS
EKVX NSCLC = system: EKVX NSCLC
SK-MEL-28 melanoma = system: SK-MEL-28 melanoma
MALME-3M melanoma = system: MALME-3M melanoma
NCI-H522 lung = system: NCI-H522 lung
A498 renal = system: A498 renal
HCT-15 colon = system: HCT-15 colon
DMS 114 small cell lung = system: DMS 114 small cell lung
HOP-18 NSCLC = system: HOP-18 NSCLC
SF-539 CNS = system: SF-539 CNS
LOX IMVI melanoma = system: LOX IMVI melanoma
IGROV1 ovarian = system: IGROV1 ovarian
MOLT-4 leukemia = system: MOLT-4 leukemia
HCT-116 colon = system: HCT-116 colon
K-562 leukemia = system: K-562 leukemia
A549 NSCLC = system: A549 NSCLC
UO-31 renal = system: UO-31 renal
HOP-62 NSCLC = system: HOP-62 NSCLC
ACHN renal = system: ACHN renal
DMS 273 small cell lung = system: DMS 273 small cell lung
SNB-19 CNS = system: SNB-19 CNS
RXF-631 renal = system: RXF-631 renal
CCRF-CEM leukemia = system: CCRF-CEM leukemia
HL-60(TB) leukemia = system: HL-60(TB) leukemia
COLO 205 colon = system: COLO 205 colon
SW-620 colon = system: SW-620 colon
HT29 colon = system: HT29 colon
NCI-H226 lung = system: NCI-H226 lung
UACC-62 melanoma = system: UACC-62 melanoma
M19-MEL melanoma = system: M19-MEL melanoma
786-0 renal = system: 786-0 renal
NCI-H460 lung = system: NCI-H460 lung
SNB-75 CNS = system: SNB-75 CNS
HCC-2998 colon = system: HCC-2998 colon
SK-MEL-2 melanoma = system: SK-MEL-2 melanoma
NCI-H23 lung = system: NCI-H23 lung
KM20L2 colon = system: KM20L2 colon
SK-OV-3 ovarian = system: SK-OV-3 ovarian
SR leukemia = system: SR leukemia

With `COc1ccc(C(O)c2cc(OC)c(OC)c(OC)c2)cc1` (stereo not given) the TGI (RPMI-8226 leukemia) was over 100 µM, the TGI (HOP-92 NSCLC) was over 100 µM and the TGI (LXFL 529 NSCLC) was over 100 µM. The TGI (OVCAR-3 ovarian) was 47 µM, the TGI (TK-10 renal) was over 100 µM and the TGI (SF-295 CNS) was 29.2 µM. For the same compound, the TGI (SF-268 CNS) was over 100 µM, the TGI (OVCAR-4 ovarian) was over 100 µM and the TGI (RXF 393 renal) was 30.6 µM. For the same compound, the TGI (SNB-78 CNS) was over 100 µM, the TGI (SK-MEL-5 melanoma) was 42.2 µM and the TGI (M14 melanoma) was 83.3 µM. The TGI (OVCAR-8 ovarian) was over 100 µM, the TGI (SN12C renal) was over 100 µM and the TGI (CAKI-1 renal) was over 100 µM. It also gave a TGI (UACC-257 melanoma) of over 100 µM, a TGI (DLD-1 colon) of over 100 µM and a TGI (KM12 colon) of over 100 µM. It also gave a TGI (OVCAR-5 ovarian) of over 100 µM, a TGI (U251 CNS) of over 100 µM and a TGI (EKVX NSCLC) of over 100 µM. For the same compound, the TGI (SK-MEL-28 melanoma) was over 100 µM, the TGI (MALME-3M melanoma) was over 100 µM and the TGI (NCI-H522 lung) was 35.5 µM. It also gave a TGI (A498 renal) of over 100 µM, a TGI (HCT-15 colon) of over 100 µM and a TGI (DMS 114 small cell lung) of 37.5 µM. It also gave a TGI (HOP-18 NSCLC) of over 100 µM, a TGI (SF-539 CNS) of 63.7 µM and a TGI (LOX IMVI melanoma) of over 100 µM. It also gave a TGI (IGROV1 ovarian) of over 100 µM, a TGI (MOLT-4 leukemia) of over 100 µM and a TGI (HCT-116 colon) of over 100 µM. For the same compound, the TGI (K-562 leukemia) was over 100 µM, the TGI (A549 NSCLC) was over 100 µM and the TGI (UO-31 renal) was over 100 µM. It also gave a TGI (HOP-62 NSCLC) of over 100 µM, a TGI (ACHN renal) of over 100 µM and a TGI (DMS 273 small cell lung) of over 100 µM. For the same compound, the TGI (SNB-19 CNS) was over 100 µM, the TGI (RXF-631 renal) was over 100 µM and the TGI (CCRF-CEM leukemia) was over 100 µM. It also gave a TGI (HL-60(TB) leukemia) of 39.5 µM, a TGI (COLO 205 colon) of 26.4 µM and a TGI (SW-620 colon) of over 100 µM. The TGI (HT29 colon) was over 100 µM, the TGI (NCI-H226 lung) was over 100 µM and the TGI (UACC-62 melanoma) was over 100 µM. The TGI (M19-MEL melanoma) was over 100 µM, the TGI (786-0 renal) was over 100 µM and the TGI (NCI-H460 lung) was over 100 µM.
`CC12OC3(C)OC(=O)C(c4ccccc4)(O1)C3(C)O2` (stereo not given) showed a TGI (RPMI-8226 leukemia) of over 100 µM, a TGI (HOP-92 NSCLC) of over 100 µM and a TGI (LXFL 529 NSCLC) of over 100 µM. For the same compound, the TGI (OVCAR-3 ovarian) was over 100 µM, the TGI (TK-10 renal) was over 100 µM and the TGI (SF-295 CNS) was over 100 µM. It also gave a TGI (SF-268 CNS) of over 100 µM, a TGI (OVCAR-4 ovarian) of over 100 µM and a TGI (RXF 393 renal) of over 100 µM. The TGI (SNB-78 CNS) was over 100 µM, the TGI (SK-MEL-5 melanoma) was over 100 µM and the TGI (SNB-75 CNS) was over 100 µM. The TGI (HCC-2998 colon) was over 100 µM, the TGI (M14 melanoma) was over 100 µM and the TGI (OVCAR-8 ovarian) was over 100 µM. For the same compound, the TGI (SN12C renal) was over 100 µM, the TGI (CAKI-1 renal) was over 100 µM and the TGI (UACC-257 melanoma) was over 100 µM. It also gave a TGI (DLD-1 colon) of over 100 µM, a TGI (KM12 colon) of over 100 µM and a TGI (SK-MEL-2 melanoma) of over 100 µM. The TGI (NCI-H23 lung) was over 100 µM, the TGI (OVCAR-5 ovarian) was over 100 µM and the TGI (U251 CNS) was over 100 µM. The TGI (EKVX NSCLC) was over 100 µM, the TGI (SK-MEL-28 melanoma) was over 100 µM and the TGI (MALME-3M melanoma) was over 100 µM. For the same compound, the TGI (NCI-H522 lung) was over 100 µM, the TGI (A498 renal) was over 100 µM and the TGI (HCT-15 colon) was over 100 µM. The TGI (DMS 114 small cell lung) was over 100 µM, the TGI (HOP-18 NSCLC) was over 100 µM and the TGI (SF-539 CNS) was over 100 µM. It also gave a TGI (LOX IMVI melanoma) of over 100 µM, a TGI (IGROV1 ovarian) of over 100 µM and a TGI (MOLT-4 leukemia) of over 100 µM. The TGI (HCT-116 colon) was over 100 µM, the TGI (K-562 leukemia) was over 100 µM and the TGI (A549 NSCLC) was over 100 µM. For the same compound, the TGI (UO-31 renal) was over 100 µM, the TGI (ACHN renal) was over 100 µM and the TGI (DMS 273 small cell lung) was over 100 µM. It also gave a TGI (SNB-19 CNS) of over 100 µM, a TGI (RXF-631 renal) of over 100 µM and a TGI (CCRF-CEM leukemia) of over 100 µM. For the same compound, the TGI (HL-60(TB) leukemia) was over 100 µM, the TGI (COLO 205 colon) was over 100 µM and the TGI (KM20L2 colon) was over 100 µM. It also gave a TGI (SW-620 colon) of over 100 µM, a TGI (HT29 colon) of over 100 µM and a TGI (NCI-H226 lung) of over 100 µM. For the same compound, the TGI (UACC-62 melanoma) was over 100 µM, the TGI (SK-OV-3 ovarian) was over 100 µM and the TGI (M19-MEL melanoma) was over 100 µM. The TGI (786-0 renal) was over 100 µM.
`Cc1cc(C(C)C)cc(O)c(=O)c1` showed a TGI (RPMI-8226 leukemia) of over 100 µM, a TGI (HOP-92 NSCLC) of over 100 µM and a TGI (LXFL 529 NSCLC) of over 100 µM. For the same compound, the TGI (OVCAR-3 ovarian) was over 100 µM, the TGI (TK-10 renal) was over 100 µM and the TGI (SF-295 CNS) was over 100 µM. For the same compound, the TGI (SF-268 CNS) was over 100 µM, the TGI (OVCAR-4 ovarian) was over 100 µM and the TGI (RXF 393 renal) was over 100 µM. For the same compound, the TGI (SNB-78 CNS) was over 100 µM, the TGI (SK-MEL-5 melanoma) was over 100 µM and the TGI (SNB-75 CNS) was over 100 µM. The TGI (SR leukemia) was over 100 µM, the TGI (HCC-2998 colon) was over 100 µM and the TGI (M14 melanoma) was over 100 µM. The TGI (OVCAR-8 ovarian) was over 100 µM, the TGI (SN12C renal) was over 100 µM and the TGI (CAKI-1 renal) was over 100 µM. The TGI (UACC-257 melanoma) was over 100 µM, the TGI (DLD-1 colon) was over 100 µM and the TGI (KM12 colon) was over 100 µM. It also gave a TGI (OVCAR-5 ovarian) of over 100 µM, a TGI (U251 CNS) of over 100 µM and a TGI (EKVX NSCLC) of over 100 µM. The TGI (SK-MEL-28 melanoma) was over 100 µM, the TGI (MALME-3M melanoma) was over 100 µM and the TGI (NCI-H522 lung) was over 100 µM. For the same compound, the TGI (A498 renal) was over 100 µM, the TGI (HCT-15 colon) was over 100 µM and the TGI (HOP-18 NSCLC) was over 100 µM. It also gave a TGI (SF-539 CNS) of over 100 µM, a TGI (LOX IMVI melanoma) of over 100 µM and a TGI (IGROV1 ovarian) of over 100 µM. The TGI (MOLT-4 leukemia) was over 100 µM, the TGI (HCT-116 colon) was over 100 µM and the TGI (A549 NSCLC) was over 100 µM. For the same compound, the TGI (UO-31 renal) was over 100 µM, the TGI (HOP-62 NSCLC) was over 100 µM and the TGI (ACHN renal) was over 100 µM. For the same compound, the TGI (DMS 273 small cell lung) was over 100 µM, the TGI (SNB-19 CNS) was over 100 µM and the TGI (RXF-631 renal) was over 100 µM. It also gave a TGI (CCRF-CEM leukemia) of over 100 µM, a TGI (HL-60(TB) leukemia) of over 100 µM and a TGI (COLO 205 colon) of over 100 µM. It also gave a TGI (KM20L2 colon) of over 100 µM, a TGI (SW-620 colon) of over 100 µM and a TGI (HT29 colon) of over 100 µM. The TGI (NCI-H226 lung) was over 100 µM, the TGI (UACC-62 melanoma) was over 100 µM and the TGI (SK-OV-3 ovarian) was over 100 µM. It also gave a TGI (M19-MEL melanoma) of over 100 µM, a TGI (786-0 renal) of over 100 µM and a TGI (NCI-H460 lung) of over 100 µM.

Reference: PubChem BioAssay (NCI)
